Like-named read-outs stand apart in the source and are kept apart here. Starred links: 1 amine or outer side, 2 acyl side, 3 side chain; linkers in the order of their positions; H or OH if unused. Positions of bridges follow the written chain, without caps; N, C: chain ends. Non-standard residues stand in square brackets, D forms with d. Residues, ends and D or L forms follow the SMILES beside them. *: point of attachment. NMeF = CN[C@@H](Cc1ccccc1)C(=O)O; NMeGABA = CN(CCCC(=O)[*:2])[*:1]; NMeI = CC[C@H](C)[C@H](NC)C(=O)O; NMeβAla = CN(CCC(=O)[*:2])[*:1]; NMeL = CN[C@@H](CC(C)C)C(=O)O; NMeV = CN[C@H](C(=O)O)C(C)C; NMeA = CN[C@@H](C)C(=O)O; Piperidide = C1CCN(*)CC1; dNMeA = CN[C@H](C)C(=O)O; Sar = CNCC(=O)O; tBu = CC(C)(C)*
How the values were obtained:
[1] = Metabolic stability in human hepatic microsome; format: in vitro ADME
[2] = PAMPA (parallel artificial membrane permeability assay); format: in vitro ADME; settings: PAMPA
How it was run: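 Artificial membrane was 10% (w/v) egg lecithin plus 0.5% (w/v) cholesterol in dodecane on a PVDF filter. A 10 mM DMSO stock was added at 0.5% (v/v) to donor buffer (50 mM MOPSO, pH 6.5, 5.0% glycocholic acid). After 18 h at 37 °C, LC/MS or LC/UV gave donor and acceptor levels for Pe.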

[3] = microsomes, pH 7.4, human hepatic microsome, NADPH(+), read-out: CL NADPH(+)
[4] = membrane permeation rate (Pe), 50 mM MOPSO buffer pH 6.5 with 5.0% glycocholic acid, 37° C., 18 hours, read-out: iPAMPA Pe
[5] = human, microsomes, pH 7.4, CL NADPH(+)

Structure (SMILES) | microsomal CLint at 1 uM [1, 3] | Papp at 18 hours, 50 µM [2, 4] | microsomal CLint at 1 uM ([1]; human, liver microsomes, pH 7.4, human hepatic microsome, NADPH(+), read-out: CL NADPH(+)) | microsomal CLint at 1 uM [1, 5] | Papp at 18 hours, 50 µM ([2]; pH 6.5)
CC[C@H](C)[C@H]1C(=O)N[C@H](C(=O)N2CCCCC2)CC(=O)N[C@H](C)C(=O)N[C@@H]([C@@H](C)O)C(=O)N(C)[C@@H](Cc2ccccc2)C(=O)N[C@@H](CC(C)C)C(=O)N2CCC[C@H]2C(=O)N(C)[C@@H](C(C)C)C(=O)N[C@@H](Cc2ccccc2)C(=O)N(C)CC(=O)N(C)[C@@H](CC(C)C)C(=O)N[C@@H](C)C(=O)N1C [DP-215] ([dA]T[NMeF]LP[NMeV]F[Sar][NMeL]A[NMeI]D-Piperidide; lactam N-12) | 35 µL/min/mg | 24 ×10⁻⁶ cm/s |  |  | 
CC[C@H](C)[C@H]1C(=O)N[C@H](C(=O)N2CCCCC2)CC(=O)N[C@H](C(C)C)C(=O)N[C@@H](CC(C)C)C(=O)N(C)[C@@H](Cc2ccccc2)C(=O)N[C@@H]([C@@H](C)O)C(=O)N(C)[C@@H](C)C(=O)N[C@@H](C(C)C)C(=O)N[C@@H](Cc2ccccc2)C(=O)N(C)[C@@H](CC(C)C)C(=O)N[C@@H](CC(C)C)C(=O)NCC(=O)N1C [DP-216] ([dV]L[NMeF]T[NMeA]VF[NMeL]LG[NMeI]D-Piperidide; lactam N-12) | 43 µL/min/mg | 4.5 ×10⁻⁶ cm/s |  |  | 
CC[C@H](C)[C@H]1C(=O)N[C@@H](C)C(=O)N[C@@H](Cc2ccccc2)C(=O)N(C)[C@@H](Cc2ccccc2)C(=O)N[C@@H]([C@@H](C)O)C(=O)N(C)[C@@H](C)C(=O)N[C@@H](CC(C)C)C(=O)N[C@H](C(=O)N2CCCCC2)CC(=O)N[C@H](C(C)C)C(=O)N(C)[C@@H](C(C)C)C(=O)NCC(=O)N(C)[C@@H](CC(C)C)C(=O)N1C [DP-217] ([dV][NMeV]G[NMeL][NMeI]AF[NMeF]T[NMeA]LD-Piperidide; lactam N-12) | 37 µL/min/mg | 38 ×10⁻⁶ cm/s |  |  | 
CC[C@H](C)[C@H]1C(=O)N[C@@H](CC(C)C)C(=O)N(C)[C@@H](C)C(=O)N(C)[C@@H](Cc2ccccc2)C(=O)NCC(=O)N[C@@H]([C@@H](C)O)C(=O)N[C@@H](Cc2ccccc2)C(=O)N(C)[C@@H](CC(C)C)C(=O)N2CCC[C@H]2C(=O)N[C@H](C(=O)N2CCCCC2)CC(=O)N[C@H](C(C)C)C(=O)N[C@@H](CC(C)C)C(=O)N1C [DP-218] ([dV]L[NMeI]L[NMeA][NMeF]GTF[NMeL]PD-Piperidide; lactam N-12) |  | 33 ×10⁻⁶ cm/s | 18 µL/min/mg |  | 
CC[C@H](C)[C@H]1C(=O)N[C@@H](C)C(=O)N(C)[C@@H](CC(C)C)C(=O)N[C@@H]([C@@H](C)O)C(=O)N[C@@H](Cc2ccccc2)C(=O)N(C)[C@@H](Cc2ccccc2)C(=O)N(C)[C@@H](CC(C)C)C(=O)N[C@@H](COC(C)(C)C)C(=O)N(C)[C@@H](CC(C)C)C(=O)N(C)[C@@H](C)C(=O)N[C@H](C(=O)N2CCCCC2)CC(=O)N[C@H](C(C)C)C(=O)N1C [DP-219] ([dV][NMeI]A[NMeL]TF[NMeF][NMeL]S(tBu)[NMeL][NMeA]D-Piperidide; lactam N-12) | 49 µL/min/mg | 1.3 ×10⁻⁶ cm/s |  |  | 
CC[C@H](C)[C@H]1C(=O)NCC(=O)N(C)[C@@H](CC(C)C)C(=O)N[C@@H](CC(C)C)C(=O)N[C@H](C(=O)N2CCCCC2)CC(=O)N(C)[C@@H](C)C(=O)N[C@@H](CC(C)C)C(=O)N(C)[C@@H](C)C(=O)N[C@@H]([C@@H](C)O)C(=O)N2CCC[C@H]2C(=O)N(C)[C@@H](Cc2ccccc2)C(=O)N[C@@H](Cc2ccccc2)C(=O)N1C [DP-220] ([NMeA]L[NMeA]TP[NMeF]F[NMeI]G[NMeL]LD-Piperidide; lactam N-12) |  |  |  | 26 µL/min/mg | 33 ×10⁻⁶ cm/s
CC[C@H](C)[C@H]1C(=O)N[C@@H](Cc2ccccc2)C(=O)N[C@H](C(=O)N2CCCCC2)CC(=O)N(C)CCC(=O)N(C)[C@@H](C(C)C)C(=O)N[C@@H](Cc2ccccc2)C(=O)N[C@@H](CC(C)C)C(=O)N(C)[C@@H](C)C(=O)N[C@@H]([C@@H](C)O)C(=O)N[C@@H](CC(C)C)C(=O)N(C)[C@@H](CC(C)C)C(=O)NCC(=O)N1C [DP-221] ([NMeβAla][NMeV]FL[NMeA]TL[NMeL]G[NMeI]FD-Piperidide; lactam N-12) | 75 µL/min/mg | 31 ×10⁻⁶ cm/s |  |  | 
CC[C@H](C)[C@H]1C(=O)N[C@H](C(=O)N2CCCCC2)CC(=O)N(C)CCC(=O)N[C@@H](Cc2ccccc2)C(=O)N(C)[C@@H](CC(C)C)C(=O)N[C@@H](COC(C)(C)C)C(=O)NCC(=O)N2CCC[C@H]2C(=O)N[C@@H]([C@@H](C)O)C(=O)N[C@@H](CC(C)C)C(=O)N(C)[C@@H](C)C(=O)N[C@@H](Cc2ccccc2)C(=O)N1C [DP-222] ([NMeβAla]F[NMeL]S(tBu)GPTL[NMeA]F[NMeI]D-Piperidide; lactam N-12) | 30 µL/min/mg | 16 ×10⁻⁶ cm/s |  |  | 
CC[C@H](C)[C@H]1C(=O)N[C@H](C(=O)N2CCCCC2)CC(=O)N(C)[C@H](C)C(=O)N(C)[C@@H](C(C)C)C(=O)N[C@@H](Cc2ccccc2)C(=O)N[C@@H](CC(C)C)C(=O)N(C)[C@@H](C)C(=O)N[C@@H]([C@@H](C)O)C(=O)N[C@@H](Cc2ccccc2)C(=O)N(C)[C@@H](CC(C)C)C(=O)N[C@@H](CC(C)C)C(=O)NCC(=O)N1C [DP-223] ([dNMeA][NMeV]FL[NMeA]TF[NMeL]LG[NMeI]D-Piperidide; lactam N-12) | 42 µL/min/mg | 23 ×10⁻⁶ cm/s |  |  | 
CC[C@H](C)[C@H]1C(=O)N[C@@H](Cc2ccccc2)C(=O)N(C)[C@@H](CC(C)C)C(=O)N[C@@H](CC(C)C)C(=O)N[C@H](C(=O)N2CCCCC2)CC(=O)N(C)[C@H](C)C(=O)N[C@@H](CC(C)C)C(=O)N(C)[C@@H](C)C(=O)N2CCC[C@H]2C(=O)N[C@@H]([C@@H](C)O)C(=O)N(C)[C@@H](Cc2ccccc2)C(=O)NCC(=O)N1C [DP-224] ([dNMeA]L[NMeA]PT[NMeF]G[NMeI]F[NMeL]LD-Piperidide; lactam N-12) |  |  |  | 18 µL/min/mg | 18 ×10⁻⁶ cm/s
CC[C@H](C)[C@H]1C(=O)N(C)[C@@H](CC(C)C)C(=O)N[C@H](C(=O)N2CCCCC2)CC(=O)N(C)CCCC(=O)N(C)[C@@H](Cc2ccccc2)C(=O)N[C@@H](Cc2ccccc2)C(=O)N2CCC[C@H]2C(=O)N[C@@H](CC(C)C)C(=O)N(C)[C@@H](C(C)C)C(=O)N[C@@H]([C@@H](C)O)C(=O)N(C)CC(=O)N[C@@H](C)C(=O)N1C [DP-225] ([NMeGABA][NMeF]FPL[NMeV]T[Sar]A[NMeI][NMeL]D-Piperidide; lactam N-12) | 32 µL/min/mg | 16 ×10⁻⁶ cm/s |  |  | 
CC[C@H](C)[C@@H]1NC(=O)[C@H](Cc2ccccc2)N(C)C(=O)[C@H](Cc2ccccc2)NC(=O)[C@H](C(C)C)N(C)C(=O)[C@H](CC(C)C)N(C)C(=O)[C@H](CC(C)C)NC(=O)[C@@H](C)NC(=O)C[C@@H](C(=O)N2CCCCC2)NC(=O)[C@H]([C@@H](C)O)NC(=O)[C@H](C)NC(=O)[C@H](C)N(C)C1=O [DP-226] ([dA]L[NMeL][NMeV]F[NMeF]I[NMeA]ATD-Piperidide; lactam N-11) | 46 µL/min/mg | 32 ×10⁻⁶ cm/s |  |  | 
CC[C@H](C)[C@H]1C(=O)N[C@@H]([C@@H](C)O)C(=O)N[C@@H](Cc2ccccc2)C(=O)N2CCC[C@H]2C(=O)NCC(=O)N(C)[C@@H](CC(C)C)C(=O)N[C@H](C(=O)N2CCCCC2)CC(=O)N[C@H](C)C(=O)N[C@@H](Cc2ccccc2)C(=O)N(C)[C@@H](CC(C)C)C(=O)N[C@@H](CC(C)C)C(=O)N1C [DP-227] ([dA]F[NMeL]L[NMeI]TFPG[NMeL]D-Piperidide; lactam N-11) |  |  |  | 141 µL/min/mg | 38 ×10⁻⁶ cm/s
CC[C@H](C)[C@H]1C(=O)N[C@@H]([C@@H](C)O)C(=O)N[C@@H](CC(C)C)C(=O)N[C@H](C(=O)N2CCCCC2)CC(=O)N[C@H](C)C(=O)N(C)[C@@H](CC(C)C)C(=O)N(C)[C@@H](CC(C)C)C(=O)N(C)[C@@H](Cc2ccccc2)C(=O)N(C)[C@@H](CC(C)C)C(=O)N(C)[C@@H](Cc2ccccc2)C(=O)N[C@@H](C)C(=O)N1C [DP-228] ([dA][NMeL][NMeL][NMeF][NMeL][NMeF]A[NMeI]TLD-Piperidide; lactam N-11) | 28 µL/min/mg | 5.2 ×10⁻⁶ cm/s |  |  | 
CC[C@H](C)[C@H]1C(=O)N[C@@H](Cc2ccccc2)C(=O)N[C@H](C(=O)N2CCCCC2)CC(=O)N[C@H](C)C(=O)N[C@@H](C)C(=O)N(C)[C@@H](CC(C)C)C(=O)N(C)[C@@H](CC(C)C)C(=O)N(C)[C@@H](Cc2ccccc2)C(=O)N[C@@H]([C@@H](C)O)C(=O)N(C)[C@@H](C)C(=O)N(C)[C@@H](C(C)C)C(=O)N1C [DP-229] ([dA]A[NMeL][NMeL][NMeF]T[NMeA][NMeV][NMeI]FD-Piperidide; lactam N-11) | 100 µL/min/mg | 33 ×10⁻⁶ cm/s |  |  | 
CC[C@H](C)[C@@H]1NC(=O)[C@H](Cc2ccccc2)N(C)C(=O)[C@H](C(C)C)N(C)C(=O)[C@H](Cc2ccccc2)NC(=O)[C@H](CC(C)C)N(C)C(=O)[C@H](CC(C)C)NC(=O)[C@@H](C(C)C)NC(=O)C[C@@H](C(=O)N2CCCCC2)NC(=O)[C@H]([C@@H](C)O)NC(=O)[C@H](C)NC(=O)[C@H](C)N(C)C1=O [DP-230] ([dV]L[NMeL]F[NMeV][NMeF]I[NMeA]ATD-Piperidide; lactam N-11) | 31 µL/min/mg | 44 ×10⁻⁶ cm/s |  |  | 
CC[C@H](C)[C@H]1C(=O)NCC(=O)N[C@@H]([C@@H](C)O)C(=O)N2CCC[C@H]2C(=O)N[C@@H](Cc2ccccc2)C(=O)N(C)[C@@H](CC(C)C)C(=O)N[C@H](C(=O)N2CCCCC2)CC(=O)N[C@H](C(C)C)C(=O)N[C@@H](Cc2ccccc2)C(=O)N(C)[C@@H](CC(C)C)C(=O)N[C@@H](CC(C)C)C(=O)N1C [DP-231] ([dV]F[NMeL]L[NMeI]GTPF[NMeL]D-Piperidide; lactam N-11) |  |  |  | 56 µL/min/mg | 18 ×10⁻⁶ cm/s

Reference: US9409952B2, “Peptide-compound cyclization method” (Chugai Seiyaku Kabushiki Kaisha, priority 2011, dated 2016)
